Reference: patent publication US6409810B1, “Water-soluble trisazo compounds, aqueous ink composition and colored article” (Nippon Kayaku Kabushiki Kaisha, priority 1997, dated 2002)

Legend:
Format in all cases: physicochemical
[1] = Test for resistance to water of the recorded images (immersion in water, visual examination of dropout); design: key to water fastness plain paper: ∘: Less amount of the compound was dropped out.; Δ: About half of the compound was dropped out.; X: Large amount of the compound was dropped out; conditions: immersed in water 2 minutes with mild stirring, dried; for water fastness ink jet paper A: ink jet print on ink jet paper A; for water fastness ink jet paper B: ink jet print on ink jet paper B; for water fastness plain paper: ink jet print on plain paper
Method: (§1) A liquid having the following formulation was prepared and passed through a 0.45 μm membrane filter to obtain an aqueous ink composition for ink jet printers.
(§2) An ink jet recording was conducted on three different papers, i.e. plain papers (Canon printer paper A4 (TLB5A4S)), ink jet papers A (Color BJ Paper LC 101; ex. Canon) and ink jet papers B (coated papers for ink jet printer STX73 A4; ex. Sharp) by means of an ink jet printer (trade name NOVA JET III; ex. ENCAD). The thus-recorded images were tested with respect to the resistances to light and water and a color rendering property.
Test specimen was immersed in water contained in a beaker with mild stirring for 2 minutes and dried. Amount of the compound was observed by the visual examination before and after the immersion, and dropout of the compound was judged.

[2] = Color rendering property (hue change under tungsten light versus standard light source, visual); design: key: ∘: Change in hue was small.; Δ: Change in hue was somewhat large.; X: Change in hue was large; conditions: hue change under tungsten light compared with standard light source
Method: as §1, §2
Discoloration was judged by the visual examination by comparing the hue change under the tungsten light with that under the standard light source.

[3] = Test for resistance to light of the recorded images (carbon arc fade meter, Blue Scale JIS L-0841); conditions: 20 hours carbon arc fade meter; for light fastness (rank) ink jet paper A: ink jet print on ink jet paper A (Color BJ Paper LC 101, Canon); for light fastness (rank) ink jet paper B: ink jet print on ink jet paper B (coated paper STX73 A4, Sharp); for light fastness (rank) plain paper: ink jet print on plain paper (Canon TLB5A4S)
Method: as §1, §2
The recorded images were irradiated with light for 20 hours by means of a carbon arc fade meter (ex. SUGA Shikenkisha). Light fastness was judged according to the Blue Scale for light resistance standard as defined in JIS L-0841.

Structure (SMILES)	water fastness ink jet paper A [1]	color rendering property [2]	light fastness (rank) ink jet paper A [3]	light fastness (rank) ink jet paper B [3]	light fastness (rank) plain paper [3]	water fastness ink jet paper B [1]	water fastness plain paper [1]
Nc1cc2c(O)c(N=Nc3ccc(N=Nc4ccc(S(=O)(=O)[O-])cc4)c4ccc(S(=O)(=O)[O-])cc34)c(S(=O)(=O)[O-])cc2cc1S(=O)(=O)[O-].[Na+].[Na+].[Na+].[Na+] [compound 1, C.I. Food Black 2, reference compound]	◯	Δ	3 rank	4-5 rank	4-5 rank	–	–
COc1cc(N=Nc2cc(S(=O)(=O)O)cc3cc(S(=O)(=O)O)cc(O)c23)c(C)cc1N=Nc1c(S(=O)(=O)O)cc2ccc(N=Nc3ccc(O)cc3O)cc2c1O [compound 0003]	◯	◯	3-4 rank	4-5 rank	4-5 rank	◯	Δ
COc1cc(N=Nc2cc(S(=O)(=O)O)cc3cc(S(=O)(=O)O)cc(O)c23)c(C)cc1N=Nc1c(S(=O)(=O)O)cc2ccc(N=Nc3cc(S(=O)(=O)O)c(N)cc3N)cc2c1O [compound 0005]	◯	◯	4-5 rank	5 rank	5 rank	◯	Δ˜◯
COc1cc(N=Nc2cc(S(=O)(=O)O)cc3cc(S(=O)(=O)O)cc(O)c23)c(C)cc1N=Nc1c(S(=O)(=O)O)cc2ccc(N=Nc3ccc(NCC(=O)O)cc3NCC(=O)O)cc2c1O [compound 0007]	◯	◯	3-4 rank	4 rank	4 rank	◯	◯

Further lines, results first:

water fastness ink jet paper A [1]	color rendering property [2]	light fastness (rank) ink jet paper A [3]	light fastness (rank) ink jet paper B [3]	light fastness (rank) plain paper [3]	water fastness ink jet paper B [1]	water fastness plain paper [1]	Structure (SMILES)
◯	◯	4-5 rank	5 rank	5 rank	◯	Δ˜◯	COc1cc(N=Nc2cc(S(=O)(=O)O)cc3cc(S(=O)(=O)O)cc(O)c23)c(C)cc1N=Nc1c(S(=O)(=O)O)cc2ccc(N=Nc3ccc(N)cc3N)cc2c1O [compound 0001]
◯	–	2 rank	4 rank	4 rank	◯	◯	Nc1ccc2cc(S(=O)(=O)O)c(N=Nc3ccc(N=Nc4cc(C(=O)O)cc(C(=O)O)c4)c4ccccc34)c(O)c2c1 [compound 2, reference compound]
◯	◯	4 rank	5 rank	4-5 rank	◯	Δ˜◯	COc1cc(N=Nc2cc(S(=O)(=O)O)cc3cc(S(=O)(=O)O)cc(O)c23)c(C)cc1N=Nc1c(S(=O)(=O)O)cc2ccc(N=Nc3ccc(N)cc3O)cc2c1O [compound 0002]
◯	◯	4 rank	4 rank	4-5 rank	◯	Δ˜◯	COc1cc(N=Nc2cc(S(=O)(=O)O)cc3cc(S(=O)(=O)O)cc(O)c23)c(NC(C)=O)cc1N=Nc1c(S(=O)(=O)O)cc2ccc(N=Nc3ccc(N)cc3O)cc2c1O [compound 0011]
